We go through twelve compounds from patent US8415095B2, “Use of nucleoside derivatives comprising a citrate group for the production of antibodies having an affinity for triphosphorylated nucleosides” (Centre National de la Recherche-Scientifique-CNRS, priority 2003, dated 2013).

“And” between values parts separate entries of the source, which are not always exact repeats. Equal entries are not always repeated. Some results are limits rather than exact numbers.

Series [1] relates to anti-isostere antibody of ddATP. The series is described as follows: Radioimmunological determination (RIA) of the specificity of the anti-isostere antibody of ddATP, tracer ddA-HS-K-125IY. On the set-up: species or system rabbit. Conditions: concentration of non-tagged antigen which inhibits 50% of the antigen-antibody binding. The source says:
The polyclonal antibodies were produced in the rabbit, according to standard methods.
The antibodies having an affinity for the ddNTP derivatives can be identified by immunological techniques either by means of immunoenzymatic determinations or by means of radioimmunological determinations (RIA).
The specificity of these antibodies was studied in relation to different analogues of ddATP.

The next series relates to blood monocyte cells. The series is described as follows: In vitro cell model: blood monocyte cells incubated with ddI, RIA of supernatant ddI and intracellular ddATP after Sep Pak anionic cartridge. Format: in vitro ADME, human. Conditions: for Intracellular content in ddATP eq. (pmoles/10^6) cells: fractions 32-37. As to the method: Separation by anionic chromatography of the different phosphorylated metabolites stemming from the cellular metabolism of the ddI (ddIMP, ddAMP, ddADP and ddATP) was performed on Sep Pak anionic cartridge by means of a stepwise gradient using different concentrations of KCl (6 ml KCl 50 mM, 10 ml KCl 100 mM and 6 ml KCl 250 mM).
A certain number of controls were performed on an in vitro cell model. After separation by density gradient on Ficoll, the blood monocyte cells were incubated with different concentrations of ddI in the RPMI (at the level of 5×10^5 cells per ml).
The immunoreactivity present in the supernatant was expressed in equivalents (eq.) ddI established in relation to a ddI reference curve, and illustrated in Table 2 below. The ddATP immunoreactivity corresponds to the sum of the immunoreactivities present in the fractions 32-37 stemming from the separation of the intracellular contents on Sep Pak anionic cartridge. The immunoreactivity was expressed in ddATP equivalents in relation to a ddATP reference curve, and is also illustrated in Table 2 below.
The nature of the immunoreactive material present in the culture supernatant and in the intracellular medium was controlled by chromatography on a Sep Pak anionic cartridge. and detected by radioimmunological quantitation. […] This is shown in attached FIG. 2.

The conditions of series [2]: human, in vivo. As to the method: Blood samples were collected from patients infected with HIV-1 and undergoing treatment comprising administration of ddI. The patients were under the supervision of Professor P. Dellamonica at the Archet Hospital in Nice. The blood samples were collected using cell preparation tubes (CPT) at the rate of two 4-ml tubes for each of the 4 patients participating in this study. Quantification of the ddI in the plasma was performed for each patient and expressed in ddI equivalents. Intracellular quantification of ddATP was performed after chromatography (on Sep Pak anionic cartridge) of the cellular lysates. For each fraction (500 μl), the cellular content of ddATP was determined directly and expressed in ddATP equivalents; quantification was then performed after dephosphorylation and expressed in ddA equivalents.

On to `Nc1ccn(C2CSC(CO)O2)c(=O)n1` (centres unmarked) [3TC, 2′,3′-dideoxyo-3′-thiacytidine], for which, in series [1], the IC50 came to 200 µM.

For the compound `Nc1ncnc2c1ncn2[C@@H]1O[C@H](COP(=O)(O)OP(=O)(O)O)[C@@H](O)[C@H]1O` [ADP], the IC50 in series [1] is above 1000 µM.

For `Nc1ncnc2c1ncn2[C@@H]1O[C@H](COP(=O)(O)O)[C@@H](O)[C@H]1O` [AMP], the IC50 in series [1] is above 1000 µM.

`Nc1ncnc2c1ncn2[C@@H]1O[C@H](COP(=O)(O)OP(=O)(O)OP(=O)(O)O)[C@@H](O)[C@H]1O` [ATP] returned an IC50 in series [1] of 36 µM.

Turning to `Nc1ncnc2nc[nH]c12` [adenine], the IC50 in series [1] was 9 µM.

Regarding `Nc1ncnc2c1ncn2[C@@H]1O[C@H](CO)[C@@H](O)[C@H]1O` [adenosine], the half-inhibitory concentration (IC50) in series [1] worked out at 2.4 µM.

In turn, `Nc1ncnc2c1ncn2C1CC(O)C(CO)O1` (centres unmarked) [dA] yielded an IC50 in series [1] of 0.3 µM.

As for `Nc1ncnc2c1ncn2[C@H]1CC[C@@H](CO)O1` [ddA, 2′,3′-dideoxyadenosine], in series [1], the IC50 is 0.0004 µM.

`Nc1ncnc2c1ncn2[C@H]1CC[C@@H](COP(=O)(O)OP(=O)(O)OP(=O)(O)O)O1` [ddATP, 2′,3′-didesoxyadenosine-5′-triphosphate] displayed an IC50 in series [1] of 0.0011 µM.

In the case of `Nc1ccn([C@H]2CC[C@@H](CO)O2)c(=O)n1` [ddC], the 50% inhibitory concentration (IC50) in series [1] was above 1000 µM.

On to `O=c1[nH]cnc2c1ncn2[C@H]1CC[C@@H](CO)O1` [ddI], for which the “intracellular immunoreactive content eluted in the elution volume of ddATP (yield)” value in the series on blood monocyte cells (Sep Pak anionic cartridge) is recorded as 92%. In addition, the “share of supernatant immunoreactivity in fractions 1 to 5 (elution volume of ddI)” value with blood monocyte cells (culture supernatants n=4, Sep Pak anionic cartridge) turned out to be 100%. Also, the “Concentration of ddI of the supernatant in ddI eq.” value with blood monocyte cells (incubated ddI 1 × 10^−4 M) was 130 µM and 150 µM. Moreover, the “Concentration of ddI of the supernatant in ddI eq. (M)” value with blood monocyte cells (incubated ddI 1 × 10^−5 M) is recorded as 3.8 ± 0.34 × 10^−5 (n = 2) M; in the series on blood monocyte cells (incubated ddI 1 × 10^−7 M) it was 2.74 × 10^−7 (n = 1) M; in the series with blood monocyte cells (incubated ddI 5 × 10^−6 M), 5.74 × 10^−6 (n = 1) M. Moreover, the “Intracellular content in ddATP eq. (pmoles/10^6) cells” value was 10.4 ± 0.6 (n = 2) pmoles/10^6 cells with blood monocyte cells (incubated ddI 1 × 10^−5 M), 0.15 (n = 1) pmoles/10^6 cells in the series on blood monocyte cells (incubated ddI 1 × 10^−7 M) and 1.8 (n = 1) pmoles/10^6 cells with blood monocyte cells (incubated ddI 5 × 10^−6 M). Moreover, the “ddI in the cells” value in the series on blood monocyte cells (no immunoreactive material at the retention time of ddI) was “not detectable”. Further, the IC50 in series [1] turned out to be 0.002 µM. Further, the plasma concentrations in series [2] was 2-6×10^−6.

Take `Nc1ncnc2c1ncn2C1CCC(COC(=O)CC(O)(CC(=O)O)C(=O)O)O1` (centres unmarked) [isostere of ddATP, 5′-O-(3,4-dicarboxy-3-hydroxy)butanoate-2′,3′-didesoxyadenosine]: in series [1], the IC50 was determined as 5.2e-05 µM.
